Holding throughout (assay type): in vivo
The test system of data set [1] is Alopecurus myosuroides (ALOMY). Put plainly: Post-emergence herbicidal action against ALOMY. To be noted: visual rating about 3 weeks after treatment vs untreated controls (100% = plants have died, 0% = like control plants). The procedure, abridged:
(§1)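 Rates were 320 g/ha or below, applied as aqueous WP/EC spray with 0.5% additive (600 l/ha) onto one-leaf-stage plants. About 3 weeks later in the greenhouse, damage was scored visually against untreated plants on a 0–100% scale, where 100% means plants died.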

Another data set has as its system Viola tricolor (VIOTR). Kind of data set: Post-emergence herbicidal action against VIOTR. Put shortly: as §1
Another data set concerns Setaria viridis (SETVI). Kind of data set: Post-emergence herbicidal action against SETVI. Put shortly: as §1
Data set [2] has as its system Digitaria sanguinalis (DIGSA). Put plainly: Post-emergence herbicidal action against DIGSA. As to conditions: visual rating about 3 weeks after treatment. The protocol:
Seeds of monocotyledonous and dicotyledonous weeds and crop plants are placed in sandy loam in plastic or organic planting pots, covered with soil and cultivated in a greenhouse under controlled growth conditions. 2 to 3 weeks after sowing, the test plants are treated at the one-leaf stage. The compounds of the invention, formulated in the form of wettable powders (WP) or as emulsion concentrates (EC), are then sprayed onto the green parts of the plants as aqueous suspension or emulsion with addition of 0.5% additive at a water application rate of 600 l/ha (converted). After the test plants have been kept in the greenhouse under optimum growth conditions for about 3 weeks, the activity of the preparations is rated visually in comparison to untreated controls. For example, 100% activity=the plants have died, 0% activity=like control plants.
Tables B1 to B13 below show the effects of selected compounds of the general formula (I) according to Table 1 on various harmful plants and at an application rate corresponding to 320 g/ha or lower, which were obtained by the experimental procedure mentioned above. The appendices “a”, “b” and “c” give differentiation by dosage used with otherwise the same harmful plants tested.

The subject of data set [3] is Verconica persica (VERPE). Put plainly: Post-emergence herbicidal action against VERPE. Put shortly:
as §1

Data set [4] deals with Pharbitis purpurea (PHBPU). Put plainly: Post-emergence herbicidal action against PHBPU. The procedure, abridged:
as §1

A further data set deals with Zea mays (ZEAMX). As to conditions: for Post-emergence action against ZEAMX in % (crop plant compatibility): 20 g/ha, effect in comparison to untreated controls; for Post-emergence action against ZEAMX in %: crop plant compatibility, 80 g/ha, effect vs untreated controls. Put shortly:
(§2)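 Visual rating (% effect vs. untreated plants; 100% = plant death) made about 3 weeks after treatment. Plants had been sprayed at one-leaf stage, 2–3 weeks post-sowing, with aqueous WP/EC preparations containing 0.5% additive, 600 l/ha water volume; a, b, c mark dose levels.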

For the next data set, the system named is Oryza sativa (ORYSA). As to conditions: crop plant compatibility. Put shortly:
as §2

Data set [5] has as its system Echinochloa crus-galli (ECHCG). Put plainly: Post-emergence herbicidal action against ECHCG. The procedure, abridged: as §1
Data set [6] has as its system Polygonum convolvulus (POLCO). Put plainly: Post-emergence herbicidal action against POLCO. As to conditions: dosage 320 g/ha. Put shortly: as §1
The subject of the next data set is Avena fatua (AVEFA). Kind of data set: Post-emergence herbicidal action against AVEFA. As to conditions: visual rating about 3 weeks after treatment. The procedure, abridged: as §1
For a further data set, the system named is Lolium rigidum (LOLRI). Kind of data set: Post-emergence herbicidal action against LOLRI. Put shortly:
as §1

The subject of data set [7] is Amaranthus retroflexus (AMARE). Kind of data set: Post-emergence herbicidal action against AMARE. As to conditions: 320 g/ha, visual rating about 3 weeks after treatment. Put shortly: as §1
[8] abbreviates: 20 g/ha, effect vs untreated controls.
[9] abbreviates: 80 g/ha, effect in comparison to untreated controls.

Structures are written as SMILES. Like-named read-outs stand apart in the source and are kept apart here.

This note sets out measurements from patent US20240041042A1, “1-(PYRIDYL)-5-AZINYLPYRAZOLE DERIVATIVES, AND THEIR USE FOR CONTROL OF UNDESIRED PLANT GROWTH” (Bayer Aktiengesellschaft, priority 2020, published 2024).

Turning to `COC(=O)C(C)COC(=O)COc1nn(-c2ncccc2F)c(-c2ccc(F)nc2)c1C1CC1` (stereo not drawn) [Example I-382], in data set [1] (320 g/ha), the “Post-emergence action against ALOMY in %” value is recorded as 90%. The “Post-emergence action against VIOTR in %” value with Viola tricolor (VIOTR) (80 g/ha) came out at 80%; with Viola tricolor (VIOTR) (320 g/ha), 90%. In addition, the “Post-emergence action against SETVI in %” value in the data set on Setaria viridis (SETVI) (dosage 80 g/ha) and in the data set on Setaria viridis (SETVI) (dosage 320 g/ha) was 90% each time. Further, the “Post-emergence action against DIGSA in %” value in data set [2] (80 g/ha) is given as 80%; in data set [2] (320 g/ha) it was 90%. Also, the “Post-emergence action against VERPE in %” value in data set [3] (320 g/ha, VERPE) was 80%; in data set [3] (dosage 80 g/ha), 80%. In addition, the “Post-emergence action against PHBPU in %” value in [4] (dosage 80 g/ha) and in data set [4] (dosage 320 g/ha) was 80% each time. Besides, the “Post-emergence action against ZEAMX in % (crop plant compatibility)” value in the data set on Zea mays (ZEAMX) came out at 0%. In addition, in the data set with Zea mays (ZEAMX), the “Post-emergence action against ZEAMX in %” value came out at 20%. The “Post-emergence action against ORYSA in %” value with Oryza sativa (ORYSA) (setting [8]) was 0%; in the data set on Oryza sativa (ORYSA) (setting [9]) it was 10%. For the same compound, the “Post-emergence action against ECHCG in %” value came out at 80% in data set [5] (dosage 80 g/ha) and 90% in data set [5] (dosage 320 g/ha). Also, the “Post-emergence action against POLCO in %” value in [6] was 80%. The “Post-emergence action against AVEFA in %” value with Avena fatua (AVEFA) (80 g/ha) and in the data set with Avena fatua (AVEFA) (320 g/ha) was 90% in each case. Also, in the data set on Lolium rigidum (LOLRI) (dosage 320 g/ha), the “Post-emergence action against LOLRI in %” value is reported as 90%.
Regarding `COC(=O)C(C)OC(=O)C(C)Oc1nn(-c2ccccn2)c(-c2ccc(F)nc2)c1Cl` (stereo not drawn) [Example I-299], the results for the “Post-emergence action against ALOMY in %” value in data set [1] (80 g/ha) and in [1] (320 g/ha) were 80% and 90%, respectively. Besides, the “Post-emergence action against AMARE in %” value in data set [7] is 80%. Moreover, the results for the “Post-emergence action against VIOTR in %” value with Viola tricolor (VIOTR) (80 g/ha) and in the data set on Viola tricolor (VIOTR) (320 g/ha) were 80% and 90%, respectively. In the data set on Setaria viridis (SETVI) (dosage 320 g/ha), the “Post-emergence action against SETVI in %” value worked out at 90%. Further, the “Post-emergence action against DIGSA in %” value in data set [2] (80 g/ha) is 80%; in data set [2] (320 g/ha), 90%. The “Post-emergence action against VERPE in %” value in [3] (320 g/ha, VERPE) is on record as 80%; in data set [3] (dosage 80 g/ha) it was 80%. In data set [4] (dosage 320 g/ha), the “Post-emergence action against PHBPU in %” value is 90%. In addition, the “Post-emergence action against ZEAMX in % (crop plant compatibility)” value in the data set with Zea mays (ZEAMX) was 0%. Besides, the “Post-emergence action against ZEAMX in %” value with Zea mays (ZEAMX) is 10%. In addition, the results for the “Post-emergence action against ORYSA in %” value with Oryza sativa (ORYSA) (setting [8]) and in the data set on Oryza sativa (ORYSA) (setting [9]) were 10% and 20%, respectively. Further, the entries for the “Post-emergence action against ECHCG in %” value in data set [5] (dosage 80 g/ha) and in data set [5] (dosage 320 g/ha) were 80% and 90%, respectively. The “Post-emergence action against POLCO in %” value in data set [6] amounted to 80%. The “Post-emergence action against AVEFA in %” value in the data set on Avena fatua (AVEFA) (80 g/ha) and in the data set on Avena fatua (AVEFA) (320 g/ha) was 80% each time. Moreover, the “Post-emergence action against LOLRI in %” value in the data set on Lolium rigidum (LOLRI) (dosage 80 g/ha) and in the data set with Lolium rigidum (LOLRI) (dosage 320 g/ha) was 80% in each case.
For the compound `COC(=O)CCOC(=O)[C@@H](C)Oc1nn(-c2ccccn2)c(-c2ccc(F)nc2)c1Br` [Example I-290], the “Post-emergence action against ALOMY in %” value in data set [1] (320 g/ha) worked out at 90%. The “Post-emergence action against VIOTR in %” value in the data set with Viola tricolor (VIOTR) (320 g/ha) was determined as 80%. The “Post-emergence action against SETVI in %” value in the data set with Setaria viridis (SETVI) (dosage 80 g/ha) and in the data set with Setaria viridis (SETVI) (dosage 320 g/ha) was 90% in each case. The “Post-emergence action against DIGSA in %” value in [2] (80 g/ha) and in data set [2] (320 g/ha) was 90% throughout. Also, the “Post-emergence action against VERPE in %” value amounted to 80% in [3] (320 g/ha, VERPE) and 80% in data set [3] (dosage 80 g/ha). For the same compound, the “Post-emergence action against PHBPU in %” value in [4] (dosage 320 g/ha) came out at 90%. Also, the “Post-emergence action against ZEAMX in % (crop plant compatibility)” value in the data set with Zea mays (ZEAMX) is on record as 0%. Further, the “Post-emergence action against ZEAMX in %” value with Zea mays (ZEAMX) is 10%. Moreover, the “Post-emergence action against ORYSA in %” value in the data set with Oryza sativa (ORYSA) (setting [8]) is given as 0%; in the data set on Oryza sativa (ORYSA) (setting [9]), 10%. The “Post-emergence action against ECHCG in %” value in data set [5] (dosage 80 g/ha) was found to be 80%; in data set [5] (dosage 320 g/ha), 90%. The “Post-emergence action against POLCO in %” value in data set [6] is listed as 80%. The “Post-emergence action against LOLRI in %” value in the data set with Lolium rigidum (LOLRI) (dosage 320 g/ha) stood at 80%.
